Laboratory results reported in ChEMBL document CHEMBL1201862, “PubChem BioAssay data set” (2004).
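All cell lines were grown in 96-well plates and treated with compound for 48 hours. At the GI50, growth is halved.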 Calls of active or inactive are those of the source. Rule as the data show it: active = GI50 up to about 1.1 µM and inactive = higher.

Columns and labels:
Experiment in all cases: NCI-60 cell line screen, 48 h
[1] = system: DU-145
[2] = system: SK-MEL-28
[3] = system: OVCAR-4
[4] = system: UACC-62
[5] = system: RPMI-8226
[6] = system: A549
[7] = system: COLO 205
[8] = system: NCI-H522
[9] = system: KM12
[10] = system: SNB-19
[11] = system: MDA-MB-231
[12] = system: SNB-75
[13] = system: MCF7
[14] = system: RXF 393
[15] = system: A498
[16] = system: Malme-3M
[17] = system: CCRF-CEM
[18] = system: SW-620
[19] = system: HOP-62

Row | Compound | GI50 [1] | GI50 [2] | GI50 [3] | GI50 [4] | GI50 [5] | GI50 [6] | GI50 [7] | GI50 [8] | GI50 [9] | GI50 [10] | GI50 [11] | GI50 [12] | GI50 [13] | GI50 [14] | GI50 [15] | GI50 [16] | GI50 [17] | GI50 [18] | GI50 [19]
1 | COc1cc(CNC(=O)CCCCCCCCCCSC#N)ccc1O | 17.8 µM (inactive) | 7.66 µM (inactive) | 25 µM (inactive) | 5.41 µM (inactive) | 14.6 µM (inactive) | 19.1 µM (inactive) | 30.3 µM (inactive) | 12.3 µM (inactive) | 5.83 µM (inactive) | 19.7 µM (inactive) | 25.7 µM (inactive) | 11 µM (inactive) | 17.1 µM (inactive) | 10.2 µM (inactive) | 15.1 µM (inactive) | 32.7 µM (inactive) | 8.13 µM (inactive) | 16.2 µM (inactive) | 
2 | COc1cc2cc(C(=O)N3CC(COS(C)(=O)=O)c4ccc(NC(=O)OCc5ccccc5)cc43)[nH]c2c(OC)c1OC (stereo not drawn) | > 100 µM (inactive) | > 100 µM (inactive) | > 100 µM (inactive) | > 100 µM (inactive) |  | > 100 µM (inactive) | > 100 µM (inactive) | 99.1 µM (inactive) | > 100 µM (inactive) | > 100 µM (inactive) | > 100 µM (inactive) | 28.9 µM (inactive) | 0.55 µM (active) | 25.2 µM (inactive) | 43.3 µM (inactive) | > 100 µM (inactive) | > 100 µM (inactive) | > 100 µM (inactive) | 79.1 µM (inactive)
3 | CCC(CC)(CO)CNc1cc(Cl)nc(N)n1 | > 100 µM (inactive) | > 100 µM (inactive) | 87.9 µM (inactive) | > 100 µM (inactive) | 92.9 µM (inactive) | > 100 µM (inactive) | > 100 µM (inactive) | > 100 µM (inactive) | > 100 µM (inactive) |  | > 100 µM (inactive) | > 100 µM (inactive) | > 100 µM (inactive) | 67.1 µM (inactive) | > 100 µM (inactive) | > 100 µM (inactive) | > 100 µM (inactive) | > 100 µM (inactive) | > 100 µM (inactive)
4 | Cc1ccccc1OC(C)C(=O)NN1C(=O)CC(=O)N(c2ccccc2)C1=S (stereo not drawn) | 51.1 µM (inactive) | > 100 µM (inactive) | > 100 µM (inactive) | 54.1 µM (inactive) | 43.3 µM (inactive) | 29.1 µM (inactive) | 68.4 µM (inactive) | 77.4 µM (inactive) | 75.5 µM (inactive) | 24 µM (inactive) | > 100 µM (inactive) | 48.3 µM (inactive) | 42.3 µM (inactive) | 61.4 µM (inactive) | 36 µM (inactive) | > 100 µM (inactive) |  | 78.3 µM (inactive) | 69.2 µM (inactive)
5 | Cc1cc(O)c2c(c1O)C(=O)c1c(O)ccc(O)c1C2=O [Cynodontin] | > 100 µM (inactive) |  | > 100 µM (inactive) | > 100 µM (inactive) | > 100 µM (inactive) | > 100 µM (inactive) | > 100 µM (inactive) | > 100 µM (inactive) | > 100 µM (inactive) | > 100 µM (inactive) | > 100 µM (inactive) | 52.5 µM (inactive) | > 100 µM (inactive) | > 100 µM (inactive) | > 100 µM (inactive) | > 100 µM (inactive) | > 100 µM (inactive) | > 100 µM (inactive) | > 100 µM (inactive)
6 | N=C(/C=C/c1ccc(-c2cn3cc(/C=C/C(=N)N4CCCC4)ccc3n2)cc1)N1CCCC1 | 50 µM (inactive) | > 100 µM (inactive) | > 100 µM (inactive) | > 100 µM (inactive) | > 100 µM (inactive) | 61.9 µM (inactive) | > 100 µM (inactive) | 31 µM (inactive) | 60.3 µM (inactive) | > 100 µM (inactive) | > 100 µM (inactive) | > 100 µM (inactive) | > 100 µM (inactive) | 50.6 µM (inactive) | > 100 µM (inactive) | 27 µM (inactive) |  | > 100 µM (inactive) | > 100 µM (inactive)
